PubChem BioAssay AID248 (DTP/NCI, 2004)
Several values for one entry are separate records, joined by “and”; a condition that tells them apart may be missing. Equal entries are not always repeated. Toxic doses and inconclusive results are not listed.

System: L1210 leukemia ip in BDF1 mice, survival T/C
Test: NCI In Vivo Anticancer Drug Screen. Data for tumor model L1210 Leukemia (intraperitoneal) in B6D2F1 (BDF1) mice
Settings: endpoint: mean survival time, higher = longer survival
Summary of the method: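 Mice bearing the transplanted tumor received compound or vehicle. Survival of the treated group was divided by that of the vehicle-treated control group to give the ratio.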

[1] = dose: 100.0 mg/kg/injection, schedule: Q01DX001 (ip), vehicle: carboxymethylcellulose (CMC)
[2] = dose: 200.0 mg/kg/injection, schedule: Q01DX001 (ip), vehicle: carboxymethylcellulose (CMC)
[3] = dose: 400.0 mg/kg/injection, schedule: Q01DX001 (ip), vehicle: carboxymethylcellulose (CMC)
[4] = dose: 50.0 mg/kg/injection, schedule: Q01DX009 (ip), vehicle: saline
[5] = dose: 100.0 mg/kg/injection, schedule: Q01DX009 (ip), vehicle: saline
[6] = dose: 200.0 mg/kg/injection, schedule: Q01DX009 (ip), vehicle: saline
[7] = dose: 400.0 mg/kg/injection, schedule: Q01DX009 (ip), vehicle: saline
[8] = dose: 100.0 mg/kg/injection, schedule: Q04DX003 (ip), vehicle: Klucel (hydroxypropylcellulose) (HPC)
[9] = dose: 400.0 mg/kg/injection, schedule: Q04DX003 (ip), vehicle: Klucel (hydroxypropylcellulose) (HPC)
[10] = dose: 100.0 mg/kg/injection, schedule: Q01DX001 (ip), vehicle: Klucel (hydroxypropylcellulose) (HPC)
[11] = dose: 200.0 mg/kg/injection, schedule: Q01DX001 (ip), vehicle: Klucel (hydroxypropylcellulose) (HPC)

O=C1c2ccccc2C(=O)N1CCC[P+](c1ccccc1)(c1ccccc1)c1ccccc1
T/C (dose: 6.25 mg/kg/injection, schedule: Q01DX009 (ip), vehicle: saline with Tween-80): 106 % of control | T/C (dose: 12.5 mg/kg/injection, schedule: Q01DX009 (ip), vehicle: saline with Tween-80): 111 % of control | T/C (dose: 25.0 mg/kg/injection, schedule: Q01DX009 (ip), vehicle: saline with Tween-80): 116 % of control and 120 % of control

O=S(=O)(c1ccccc1)C1CCCCC1Cl (stereo not given)
T/C [1]: 95 % of control | T/C [2]: 98 % of control | T/C [3]: 101 % of control

CS(=O)(=O)N(CC(=O)O)Cc1ccccc1
T/C [4]: 101 % of control | T/C (dose: 50.0 mg/kg/injection, schedule: Q01DX009 (ip), vehicle: sodium bicarbonate): 116 % of control | T/C [5]: 101 % of control | T/C (dose: 100.0 mg/kg/injection, schedule: Q01DX009 (ip), vehicle: sodium bicarbonate): 106 % of control | T/C (dose: 100.0 mg/kg/injection, schedule: Q04DX003 (ip), vehicle: sodium bicarbonate): 124 % of control | T/C [6]: 95 % of control | T/C (dose: 200.0 mg/kg/injection, schedule: Q01DX009 (ip), vehicle: sodium bicarbonate): 101 % of control | T/C (dose: 200.0 mg/kg/injection, schedule: Q04DX003 (ip), vehicle: sodium bicarbonate): 91 % of control | T/C [7]: 97 % of control | T/C (dose: 400.0 mg/kg/injection, schedule: Q01DX009 (ip), vehicle: sodium bicarbonate): 104 % of control | T/C (dose: 400.0 mg/kg/injection, schedule: Q04DX003 (ip), vehicle: sodium bicarbonate): 91 % of control

O=[As](O)(O)c1ccccc1N=Nc1ccccc1
T/C (dose: 75.0 mg/kg/injection, schedule: Q01DX009 (ip), vehicle: Klucel (hydroxypropylcellulose) (HPC)): 100 % of control | T/C (dose: 150.0 mg/kg/injection, schedule: Q01DX009 (ip), vehicle: Klucel (hydroxypropylcellulose) (HPC)): 87 % of control | T/C (dose: 300.0 mg/kg/injection, schedule: Q01DX009 (ip), vehicle: Klucel (hydroxypropylcellulose) (HPC)): 108 % of control

CS(=O)(=O)Oc1ccc2cc(Br)ccc2c1
T/C [1]: 102 % of control | T/C [2]: 100 % of control | T/C [3]: 107 % of control

NCCN1CCN=C1C1=NCCN1CCN
T/C [5]: 98 % of control | T/C (dose: 100.0 mg/kg/injection, schedule: Q04DX003 (ip), vehicle: saline): 100 % of control | T/C [6]: 93 % of control | T/C (dose: 200.0 mg/kg/injection, schedule: Q04DX003 (ip), vehicle: saline): 98 % of control | T/C [7]: 98 % of control | T/C (dose: 400.0 mg/kg/injection, schedule: Q04DX003 (ip), vehicle: saline): 96 % of control

O=C(CCl)c1ccc(Oc2ccccc2)cc1
T/C (dose: 20.0 mg/kg/injection, schedule: Q01DX009 (ip), vehicle: Klucel (hydroxypropylcellulose) (HPC)): 103 % of control | T/C (dose: 20.0 mg/kg/injection, schedule: Q04DX003 (ip), vehicle: Klucel (hydroxypropylcellulose) (HPC)): 107 % of control | T/C (dose: 40.0 mg/kg/injection, schedule: Q01DX009 (ip), vehicle: Klucel (hydroxypropylcellulose) (HPC)): 100 % of control | T/C (dose: 40.0 mg/kg/injection, schedule: Q04DX003 (ip), vehicle: Klucel (hydroxypropylcellulose) (HPC)): 104 % of control | T/C (dose: 80.0 mg/kg/injection, schedule: Q04DX003 (ip), vehicle: Klucel (hydroxypropylcellulose) (HPC)): 105 % of control | T/C [8]: 89 % of control

C=CCOCC(O)C[As](=O)(O)c1ccc(OC)cc1 (stereo not given)
T/C (dose: 25.0 mg/kg/injection, schedule: Q04DX003 (ip), vehicle: saline with Tween-80): 87 % of control

COC(=O)C1=CO[C@H](C)[C@@H]2CN3CCc4c([nH]c5ccccc45)[C@@H]3C[C@H]12
T/C (dose: 17.5 mg/kg/injection, schedule: Q01DX Z (ip), vehicle: carboxymethylcellulose (CMC)): 98 % of control

C=C(Cl)CSC(=S)N(C)C
T/C [4]: 98 % of control | T/C [5]: 98 % of control

COc1ccc(C2OCC(CCl)O2)cc1 (stereo not given)
T/C (dose: 55.0 mg/kg/injection, schedule: Q01DX Z (ip), vehicle: methylcellulose (MC)): 109 % of control | T/C (dose: 83.0 mg/kg/injection, schedule: Q01DX Z (ip), vehicle: methylcellulose (MC)): 103 % of control | T/C (dose: 125.0 mg/kg/injection, schedule: Q01DX Z (ip), vehicle: methylcellulose (MC)): 101 % of control

FC(F)(F)C(=Cc1nc2ccccc2s1)C(F)(F)F
T/C (dose: 12.5 mg/kg/injection, schedule: Q01DX009 (ip), vehicle: Klucel (hydroxypropylcellulose) (HPC)): 91 % of control | T/C (dose: 12.5 mg/kg/injection, schedule: Q04DX003 (ip), vehicle: Klucel (hydroxypropylcellulose) (HPC)): 93 % of control | T/C (dose: 25.0 mg/kg/injection, schedule: Q01DX009 (ip), vehicle: Klucel (hydroxypropylcellulose) (HPC)): 98 % of control | T/C (dose: 25.0 mg/kg/injection, schedule: Q04DX003 (ip), vehicle: Klucel (hydroxypropylcellulose) (HPC)): 97 % of control | T/C (dose: 50.0 mg/kg/injection, schedule: Q04DX003 (ip), vehicle: Klucel (hydroxypropylcellulose) (HPC)): 95 % of control

CN(C)/N=N/c1nc(Cc2ccccc2)[nH]c1C(N)=O
T/C (dose: 100.0 mg/kg/injection, schedule: Q01DX009 (ip), vehicle: Klucel (hydroxypropylcellulose) (HPC)): 108 % of control | T/C (dose: 177.0 mg/kg/injection, schedule: Q01DX009 (ip), vehicle: Klucel (hydroxypropylcellulose) (HPC)): 116 % of control | T/C (dose: 200.0 mg/kg/injection, schedule: Q01DX009 (ip), vehicle: Klucel (hydroxypropylcellulose) (HPC)): 112 % of control | T/C (dose: 266.0 mg/kg/injection, schedule: Q01DX009 (ip), vehicle: Klucel (hydroxypropylcellulose) (HPC)): 122 % of control | T/C (dose: 266.0 mg/kg/injection, schedule: Q04DX003 (ip), vehicle: Klucel (hydroxypropylcellulose) (HPC)): 109 % of control | T/C (dose: 400.0 mg/kg/injection, schedule: Q01DX009 (ip), vehicle: Klucel (hydroxypropylcellulose) (HPC)): 155 % of control | T/C [9]: 109 % of control | T/C (dose: 600.0 mg/kg/injection, schedule: Q04DX003 (ip), vehicle: Klucel (hydroxypropylcellulose) (HPC)): 106 % of control

CN(C)CCN(C)C(=O)C1C(c2ccccc2)C1c1ccccc1 (stereo not given)
T/C (dose: 12.5 mg/kg/injection, schedule: Q04DX002 (ip), vehicle: Klucel (hydroxypropylcellulose) (HPC)): 100 % of control | T/C (dose: 25.0 mg/kg/injection, schedule: Q04DX002 (ip), vehicle: Klucel (hydroxypropylcellulose) (HPC)): 100 % of control | T/C (dose: 50.0 mg/kg/injection, schedule: Q04DX002 (ip), vehicle: Klucel (hydroxypropylcellulose) (HPC)): 87 % of control

CC(C)(C)C(=O)Nc1ccc(NS(=O)(=O)c2ccccc2)c(Cl)c1
T/C (dose: 50.0 mg/kg/injection, schedule: Q01DX001 (ip), vehicle: Klucel (hydroxypropylcellulose) (HPC)): 108 % of control | T/C [10]: 97 % of control | T/C [11]: 109 % of control

CC(C)(CO)C(O)C(=O)NCCCCC1CCCCC1 (stereo not given)
T/C [8]: 98 % of control | T/C (dose: 200.0 mg/kg/injection, schedule: Q04DX003 (ip), vehicle: Klucel (hydroxypropylcellulose) (HPC)): 93 % of control | T/C [9]: 88 % of control

O=[N+]([O-])c1ccc2c(c1)OCCOCCOCCOCCO2
T/C (dose: 100.0 mg/kg/injection, schedule: Q04DX002 (ip), vehicle: Klucel (hydroxypropylcellulose) (HPC)): 95 % of control | T/C (dose: 100.0 mg/kg/injection, schedule: Q04DX002 (ip), vehicle: saline with Tween-80): 93 % of control | T/C (dose: 200.0 mg/kg/injection, schedule: Q04DX002 (ip), vehicle: Klucel (hydroxypropylcellulose) (HPC)): 103 % of control | T/C (dose: 200.0 mg/kg/injection, schedule: Q04DX002 (ip), vehicle: saline with Tween-80): 104 % of control | T/C (dose: 400.0 mg/kg/injection, schedule: Q04DX002 (ip), vehicle: saline with Tween-80): 87 % of control

Cc1cc(=O)[nH]c2c1CCCCC2
T/C [10]: 98 % of control | T/C [11]: 96 % of control | T/C (dose: 400.0 mg/kg/injection, schedule: Q01DX001 (ip), vehicle: Klucel (hydroxypropylcellulose) (HPC)): 96 % of control
